Laboratory results from patent publication US7514429B2, “Benzoxazinone-derived compounds, their preparation and use as medicaments” (ESTEVE Laboratorios Dr. Esteve S.A., priority 2002, dated 2009).
Where a name gives a salt, the structure may show the parent alone.

Experiments:
[1] = target: T1, Neuropeptide Y2 (Rattus norvegicus, UniProt Q9ERC0); assay: Binding to Neuropeptide Y2, Method (III), rat hypoccampus membranes; conditions: [125I]-PYY(3-36)
T1 construct: their brains are rapidly removed and the hypoccampus is dissected; from tissue; host or cells: rat hippocampus membranes (male Wistar rats)
T1 sequence (Q9ERC0 1-381): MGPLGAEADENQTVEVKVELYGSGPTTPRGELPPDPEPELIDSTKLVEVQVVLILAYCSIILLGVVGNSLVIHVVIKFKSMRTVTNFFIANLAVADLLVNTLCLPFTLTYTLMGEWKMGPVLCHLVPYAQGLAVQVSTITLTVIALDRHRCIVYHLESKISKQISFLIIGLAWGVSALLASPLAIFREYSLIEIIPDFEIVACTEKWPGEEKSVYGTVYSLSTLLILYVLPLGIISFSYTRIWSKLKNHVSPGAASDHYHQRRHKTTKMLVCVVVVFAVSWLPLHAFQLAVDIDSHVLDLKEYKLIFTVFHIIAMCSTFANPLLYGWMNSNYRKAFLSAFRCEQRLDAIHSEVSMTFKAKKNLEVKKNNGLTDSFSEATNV
Experimental: Binding to Neuropeptide Y2
Said literature description is herewith incorporated by reference and forms part of the disclosure.
Male Wistar rats are sacrificed by decapitation, their brains are rapidly removed and the hypoccampus is dissected. Homogenization is performed in cold conditions in the buffer: 120 mM NaCl, 4.7 mM KCl, 2.2 mM CaCl2, 1.2 mM KH2PO4, 1.2 mM MgSO4, 25 mM NaHCO3, 5.5 mM glucose, pH 7.4, by means of a Ultra-Turrax homogenizer for 15 seconds at 13,500 rpm. The ratio between fresh tissue weight and buffer volume is of ten times. The membrane is centrifuged for 10 min at 48,000 g. The supernatant is discarded and the pellet is washed, resuspended and recentrifuged two more times. The final membrane resuspension is performed in the buffer: 120 mM NaCl, 4.7 mM KCl, 2.2 mM CaCl2, 1.2 mM KH2PO4, 1.2 mM MgSO4, 25 mM NaHCO3, 5.5 mM glucose, 0.1% BSA, 0.05% bacitracin, pH 7.4, at a 90 ml/g ratio of fresh issue. […] Incubation volume: 500 μl. […] The filters are cold-washed three times with three milliliters of the same buffer used in homogenization. […] Non-specific binding is determined in the presence of 1 μM of pNPY (Neuropeptide Y of porcine origin). The assays are performed in triplicate.

[2] = test system: rats; assay: Nocturnal feeding (food intake measurement); format: in vivo, rat; conditions: vs. control group
Experimental: Behavioural Models (Food Intake Measurements)
In both test, animals rats (Male W, 200-270 g, obtained from Harlan, S. A) were used. The rats are acclimatized to the animal facility for at least 5 days before being subjected to any experimental procedure. During this period, animals were housed in groups of five in translucid cages and provided with food and water ad libitum. At least 24 hours before the tests, animals are adapted to single-housing conditions.
Food intake is measured in home cages in order to minimize non-specific stress effects on food intake resulting from changes in housing conditions. Food and water is available ad libitum. Immediately before lights turn off, rats are weighed, randomized and dosed (orally or intraperitoneally), either with vehicle or selected benzoxacine-compounds of general formula (I). Thereafter, rats are returned to home cages and food left on top covers is measured. Remaining food and animal's weight is measured next morning.
The above mentioned methods are described in Ants Kask et al., Europan Journal of Pharmacology 414 (2001) 215-224 and Turnbull et al., Diabetes, Vol. 51, August 2002, which are hereby incorporated by reference and form part of the disclosure.

[3] = target: T2, rat Y5 receptor (Rattus norvegicus, UniProt Q63634); assay: Neuropeptide Y5 receptor binding, Method (II), C6 cells transfected with the rat Y5 receptor; conditions: [125I]-PYY, Y5 rat recombinant receptor, cell C6
T2 construct: expressed in transfected cells; host or cells: C6 cells
T2 sequence (Q63634 1-445): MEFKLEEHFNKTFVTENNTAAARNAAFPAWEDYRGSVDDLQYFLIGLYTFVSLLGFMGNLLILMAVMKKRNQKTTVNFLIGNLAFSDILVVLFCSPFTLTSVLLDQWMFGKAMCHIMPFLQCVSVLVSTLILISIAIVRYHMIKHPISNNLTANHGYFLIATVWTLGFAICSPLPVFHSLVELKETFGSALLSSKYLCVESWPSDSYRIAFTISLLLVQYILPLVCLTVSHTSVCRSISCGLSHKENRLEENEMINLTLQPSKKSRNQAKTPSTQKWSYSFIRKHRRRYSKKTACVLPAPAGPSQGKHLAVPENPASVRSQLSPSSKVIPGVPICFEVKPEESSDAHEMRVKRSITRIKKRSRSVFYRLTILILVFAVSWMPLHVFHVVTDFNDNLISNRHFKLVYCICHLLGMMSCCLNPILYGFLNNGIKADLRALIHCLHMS
Experimental: Neuropeptide Y5 Receptor Binding Studies:
The methods used for membrane preparation and binding are similar to those described by Y. Hu, B. T. Bloomquist et al. in Y. Hu, B. T. Bloomquist et al., The Journal of Biological Chemistry, 1996, 271, 26315-26319 with modifications. Said literature description is herewith incorporated by reference and forms part of the disclosure. Cells C6 were transfected with the rat Y5 receptor. The cells were grown under standard culture conditions in 150 cm^2 dishes and they were harvested using a rubber scraper and 10 ml PBS. The cells from five dishes were collected and centrifuged 2.500 g for 5 min (4° C). The pellet was washed by resuspending in 3 ml buffer (Tris-HCl 10 mM, pH 7.4), homogenized using a Potter S homogenizer, 10 strokes at 600 rpm and centrifuged 48.000 g for 20 min (4° C.). The pellet was resuspended in 8 ml membrane buffer (Tris-HCl 25 mM, NaCl 120 mM, KCl 5 mM, KH2PO4 1.2 mM, CaCl2 2.5 mM, MgSO4 1.2 mM, BSA 0.15 mg/ml, Bacitracine 0.5 mg/ml, pH 7.4) and rehomogenized using the Potter S, 10 strokes at 600 rpm. The protein concentration in the incubation was 40 μg/ml. The radioligand was [^125I]-PYY (100 pM) in a total incubation volume of 200 μl. Following incubation at 25° C. for 2 h, the reaction was stopped by addition of 5 ml ice-cold buffer (Tris-HCl 25 mM, NaCl 120 mM, KCl 5 mM, KH2PO4 1.2 mM, CaCl2 2.5 mM, MgSO4 1.2 mM, pH 7.4) and rapid filtration in a Harvester Brandell Cell using filters (Schleicher & Schuell G F 3362) pretreated for two hours with 0.5% polyethyleneimine. Filters were washed one time with 5 ml ice-cold buffer. The filters were placed into plastic scintilation vials and 5 ml scintilation cocktail Ecoscint H were added. The quantity of radioactivity present was determined in a Wallac Winspectral 1414 counter. Non specific binding was determined in the presence of 1 μM de pNPY. All binding assays were done in triplicate.

Compound: Cc1cccc2c1N(C1CCN(CC(=O)Nc3ccc4c(c3)-c3ccccc3C4=O)CC1)C(=O)OC2 (as salt: HCl) [Example 35, 2-[4-(8-Methyl-2-oxo-4H-benzo[d][1,3]oxazin-1-yl)-piperidin-1-yl]-N-(9-oxo-9H-fluoren-3-yl)-acetamide hydrochloride]
- melting point: 233 to 236 °C

Compound: O=C(CN1CCC(N2C(=O)OCc3ccccc32)CC1)Nc1ccc2c(c1)-c1ccccc1C2=O [Example 3, 2-[4-(2-oxo-4H-benzo[d][1,3]oxazin-1-yl)-piperidin-1-yl]-N-(9-oxo-9H-fluoren-3-yl)-acetamide hydrochloride]
- Ki [1]: > 1 µM

Compound: CCn1c2ccccc2c2cc(NC(=O)CN3CCC(N4C(=O)OCc5ccccc54)CC3)ccc21 [Example 18, N-(9-Ethyl-9H-carbazol-3-yl)-2-[4-(2-oxo-4H-benzo[d][1,3]oxazin-1-yl)-piperidin-1-yl]-acetamide hydrochloride]
- Effect: body weight of treated animals ([2]; 40 mg/kg i.p. administration): reduces body weight of
- Effect: food intake ([2]; 40 mg/kg i.p. administration): Decreases food intake and

Compound: Cc1ccc2c(c1)COC(=O)N2C1CCN(CC(=O)Nc2ccc3c(c2)-c2ccccc2C3=O)CC1 [Example 20, 2-[4-(6-methyl-2-oxo-4H-benzo[d][1,3]oxazin-1-yl)-piperidin-1-yl]-N-(9-oxo-9H-fluoren-3-yl)-acetamide hydrochloride]
- Ki [1]: > 1 µM
- Effect: body weight of treated animals ([2]; 40 mg/kg i.p. administration): reduces body weight of
- Effect: food intake ([2]; 40 mg/kg i.p. administration): Decreases food intake and

Compound: Cc1cccc2c1N(C1CCN(CC(=O)Nc3ccc4c(c3)-c3ccccc3C4=O)CC1)C(=O)OC2 [Example 35, 2-[4-(8-Methyl-2-oxo-4H-benzo[d][1,3]oxazin-1-yl)-piperidin-1-yl]-N-(9-oxo-9H-fluoren-3-yl)-acetamide hydrochloride]
- Effect: body weight of treated animals ([2]; 20 mg/kg i.p. administration): reduces body weight of
- Effect: food intake ([2]; 20 mg/kg i.p. administration): Decreases food intake and

Compound: COc1cccc2c1COC(=O)N2C1CCN(CC(=O)Nc2ccc3sc4ccccc4c3c2)CC1 [Example 107, N-Dibenzothiophene-2-yl-2-[4-(5-methoxy-2-oxo-4H-benzo[d][1,3]oxazin-1-yl)-piperidin-1-yl]-acetamide]
- IC50 [3]: 0.0235 µM

Compound: Cc1nc2cc(NC(=O)CN3CCC(N4C(=O)OCc5cc(F)ccc54)CC3)ccc2s1 [Example 114, 2-[4-(6-Fluoro-2-oxo-4H-benzo[d][1,3]oxazin-1-yl)-piperidin-1-yl]-N-(2-methyl-benzothiazole-5-yl)-acetamide]
- IC50 [3]: 0.0407 µM

Compound: COc1ccc2c(c1)COC(=O)N2C1CCN(CC(=O)Nc2ccc3sc(C)nc3c2)CC1 [Example 116, 2-[4-(6-Methoxy-2-oxo-4H-benzo[d][1,3]oxazin-1-yl)-piperidin-1-yl]-N-(2-methyl-benzothiazole-5-yl)-acetamide]
- IC50 [3]: 0.106 µM
